{
  "source": "patent US20050215646A1",
  "about": "“Methods for treating multiple sclerosis and pharmaceutical compositions therefor” (Renovis, Inc., priority 2004, published 2005)",
  "key": {"CX3CR1": {"target": "T1, CX3CR1 (Homo sapiens, UniProt P49238)", "T1 construct": "cDNA fragments encompassing chemokine receptor coding regions; expressed in transfected cells; host or cells: CHO-K1 (ATCC CCL-61), transient transfection", "T1 sequence (P49238 1-355)": "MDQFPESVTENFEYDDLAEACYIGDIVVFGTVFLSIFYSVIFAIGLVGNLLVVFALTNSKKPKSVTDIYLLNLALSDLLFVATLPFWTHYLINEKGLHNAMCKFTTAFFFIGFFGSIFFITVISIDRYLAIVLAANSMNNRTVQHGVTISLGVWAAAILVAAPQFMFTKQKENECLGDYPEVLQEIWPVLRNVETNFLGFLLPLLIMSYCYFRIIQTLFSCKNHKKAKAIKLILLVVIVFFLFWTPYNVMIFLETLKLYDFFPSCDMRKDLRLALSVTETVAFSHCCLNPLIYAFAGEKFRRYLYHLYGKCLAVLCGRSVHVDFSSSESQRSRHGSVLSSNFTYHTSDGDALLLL", "test": "Migration of CHO-K1 cells expressing CX3CR1", "format": "cell-based", "settings": "CHO-K1 cells expressing CX3CR1, 2 hours; FIG. 3", "procedure": "(§1) CHO-K1 cells were obtained from American Type Culture Collection (CCL-61) and cultured in Ham's F12 media supplemented with 10% heat inactivated FBS and 100 μg/ml penicillin/streptomycin. cDNA fragments encompassing chemokine receptor coding regions were obtained from cDNAs synthesized from HL-60 cells and/or human peripheral blood mononuclear cells by the polymerase chain reaction. Expression constructs of chemokine receptors were generated by cloning PCR fragments into expression vector pEF6/V5-TOPO (K9610-20, Invitrogen). Transient transfections were carried out with Fugene 6 transfection reagent (1814443, Roche Applied Science) according to the manufacturer's instructions.\n(§2) The CHO-chemokine receptor cells were used in migration assays 36 hours following transfection. In vitro migration assays were performed using a Neuroprobe Blindwell migration apparatus (AA12, Neuro Probe, Inc./16008 Industrial Drive, Gaithersburg, Md. 20877) according to the manufacturer's instructions with slight modifications. […]\n(§3) Following the migration assays, migrated cells that had adhered to the underside of the filter were quantitated according to the manufacturer's instructions. […] Stained filtered were mounted onto microscope slides and migrated cells in each well were manually counted under 40× magnification."}, "[1]": {"test_system": "differentiated HL-60 cells", "test": "Inhibition of chemoattractant-mediated chemotaxis of differentiated HL-60 cells after pretreatment", "format": "cell-based", "settings": "cells pre-incubated with compound 30 minutes at 37° C, migration 2 hours", "procedure": "Compound 1 was prepared according to the methods of the invention and tested as described below. Briefly, cells were pre-incubated with Compound 1, and then assayed for chemokine-mediated cell migration.\nIn vitro cell migration assays were performed using differentiated HL-60 cells. HL-60 cells were differentiated by adding 1.4% DMSO to RPMI-1640 media supplemented with 10% FBS and 100 μg/ml penicillin/streptomycin. Cells on the sixth day following differentiation were used for in vitro migration assays.\nIn vitro migration assays were performed using a Neuroprobe migration apparatus (MBB96, Neuro Probe, Inc., Gaithersburg, Md. 20877) according to the manufacturer's protocol with slight modifications. Briefly, about 370 μl of diluted chemokine or control was added to a 96-well fibronectin-coated, black-walled Packard plate. Chemoattractants included 100 nM formyl-methionyl-leucyl-phenylalanine (fMLP), 30 ng/ml chemokine Stromal Cell-Derived Factor-1 (SDF-1), 300 ng/ml chemokine IL-8. Negative control included migration media alone. The plate was placed into the migration apparatus, an 8 μm framed filter was carefully placed on top of the plate, and the apparatus was screwed down. […]\nAfter staining, the cells were washed with 200 μl phosphate-buffered saline. Cell number in each well was quantitated using ImageXpress (Axon Instruments) or a fluorescent plate reader."}, "CXCR2": {"target": "T2, CXCR2 (Homo sapiens, UniProt P25025)", "T2 construct": "cDNA fragments encompassing chemokine receptor coding regions; expressed in transfected cells; host or cells: CHO-K1 (ATCC CCL-61), transient transfection", "T2 sequence (P25025 1-360)": "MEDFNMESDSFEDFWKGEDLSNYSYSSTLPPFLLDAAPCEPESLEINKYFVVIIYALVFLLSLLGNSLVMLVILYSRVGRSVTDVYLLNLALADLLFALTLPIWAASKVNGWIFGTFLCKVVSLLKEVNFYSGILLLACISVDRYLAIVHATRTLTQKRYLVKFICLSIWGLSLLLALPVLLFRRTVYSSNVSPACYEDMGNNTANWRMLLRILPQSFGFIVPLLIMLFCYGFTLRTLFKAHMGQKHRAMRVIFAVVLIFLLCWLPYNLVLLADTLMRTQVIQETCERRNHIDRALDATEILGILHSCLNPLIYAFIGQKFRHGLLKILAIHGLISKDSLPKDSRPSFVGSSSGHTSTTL", "test": "Migration of CHO-K1 cells expressing CXCR2", "format": "cell-based", "settings": "CHO-K1 cells expressing CXCR2, 2 hours; FIG. 3", "procedure": "as §1, §2, §3"}, "CCR receptors": {"test_system": "CCR receptors", "test": "Migration of CHO-K1 cells expressing CCR receptors", "format": "cell-based, human", "settings": "2 hours, FIG. 4", "procedure": "as §1, §2, §3"}, "CXCR4": {"target": "CXCR4 (Homo sapiens, UniProt P61073)", "sequence (P61073 whole entry, the tested form may be a part)": "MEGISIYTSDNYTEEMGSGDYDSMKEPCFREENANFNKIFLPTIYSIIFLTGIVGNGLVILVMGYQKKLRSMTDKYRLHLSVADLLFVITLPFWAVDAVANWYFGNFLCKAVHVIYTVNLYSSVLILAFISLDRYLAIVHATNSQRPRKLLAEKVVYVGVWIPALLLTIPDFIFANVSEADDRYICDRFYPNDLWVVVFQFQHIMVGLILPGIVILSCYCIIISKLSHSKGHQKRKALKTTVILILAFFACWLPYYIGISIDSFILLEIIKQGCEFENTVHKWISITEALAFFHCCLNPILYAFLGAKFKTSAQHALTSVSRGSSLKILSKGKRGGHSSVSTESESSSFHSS", "test": "Migration of CHO-K1 cells expressing CXCR4", "format": "cell-based", "parameters": "cDNA fragments encompassing chemokine receptor coding regions; expressed in transfected cells; host or cells: CHO-K1 (ATCC CCL-61), transient transfection", "settings": "CHO-K1 cells expressing CXCR4, 2 hours; FIG. 3", "procedure": "as §1, §2, §3"}},
  "data": [
    {"smiles": "CC(C)(C)c1cc(/C=[N+](\\[O-])C(C)(C)C)cc(C(C)(C)C)c1O", "note": "[Compound 1, α-(4-hydroxy-3,5-di-tert-butylphenyl)-N-tert-butylnitrone]", "values": [
      {"measurement": "induction of cell migration", "setting": "CX3CR1", "value": "induced migration"},
      {"measurement": "chemotaxis of the cells toward CXC chemokines such as IL-8 and SDF-1", "setting": "[1]; FIG. 1", "value": "inhibits"},
      {"measurement": "chemotaxis of the cells toward fMLP and CCR chemokines such as Rantes and MIP-1", "setting": "[1]; FIG. 2", "value": "inhibits"},
      {"measurement": "induction of cell migration", "setting": "CXCR2", "value": "induced migration"},
      {"measurement": "induction of cell migration", "setting": "CCR receptors", "value": "did not induce migration"},
      {"measurement": "induction of cell migration", "setting": "CXCR4", "value": "induced migration"}
    ]}
  ]
}
